Values belong to the compound of their own block, whether it stands above or below them.
Columns and labels:
KV11.1 (hERG) = biological target: T1, KV11.1 (hERG) (Homo sapiens, UniProt Q12809); conditions: literature; cited from earlier work
T1 construct: host or cells: HEK-293

KCa2 channels = conditions: literature; cited from earlier work
KCa3.1 = KCa3.1 (Homo sapiens, UniProt O15554+P0DP23); conditions: literature; cited from earlier work
KCa2/3 channels = conditions: literature; read-out: EC50s for activation of KCa2/3 channels; cited from earlier work
[1] = tested on: voltage-gated sodium (NaV) channels; conditions: literature; cited from earlier work
mice = conditions: literature, cited from earlier work
dogs = conditions: intravenous 2 mg/kg, literature; cited from earlier work
[2] = rats; literature; cited from earlier work
[3] = Solubility for electrophysiology testing; assay type: physicochemical

T1 sequence (Q12809 whole entry): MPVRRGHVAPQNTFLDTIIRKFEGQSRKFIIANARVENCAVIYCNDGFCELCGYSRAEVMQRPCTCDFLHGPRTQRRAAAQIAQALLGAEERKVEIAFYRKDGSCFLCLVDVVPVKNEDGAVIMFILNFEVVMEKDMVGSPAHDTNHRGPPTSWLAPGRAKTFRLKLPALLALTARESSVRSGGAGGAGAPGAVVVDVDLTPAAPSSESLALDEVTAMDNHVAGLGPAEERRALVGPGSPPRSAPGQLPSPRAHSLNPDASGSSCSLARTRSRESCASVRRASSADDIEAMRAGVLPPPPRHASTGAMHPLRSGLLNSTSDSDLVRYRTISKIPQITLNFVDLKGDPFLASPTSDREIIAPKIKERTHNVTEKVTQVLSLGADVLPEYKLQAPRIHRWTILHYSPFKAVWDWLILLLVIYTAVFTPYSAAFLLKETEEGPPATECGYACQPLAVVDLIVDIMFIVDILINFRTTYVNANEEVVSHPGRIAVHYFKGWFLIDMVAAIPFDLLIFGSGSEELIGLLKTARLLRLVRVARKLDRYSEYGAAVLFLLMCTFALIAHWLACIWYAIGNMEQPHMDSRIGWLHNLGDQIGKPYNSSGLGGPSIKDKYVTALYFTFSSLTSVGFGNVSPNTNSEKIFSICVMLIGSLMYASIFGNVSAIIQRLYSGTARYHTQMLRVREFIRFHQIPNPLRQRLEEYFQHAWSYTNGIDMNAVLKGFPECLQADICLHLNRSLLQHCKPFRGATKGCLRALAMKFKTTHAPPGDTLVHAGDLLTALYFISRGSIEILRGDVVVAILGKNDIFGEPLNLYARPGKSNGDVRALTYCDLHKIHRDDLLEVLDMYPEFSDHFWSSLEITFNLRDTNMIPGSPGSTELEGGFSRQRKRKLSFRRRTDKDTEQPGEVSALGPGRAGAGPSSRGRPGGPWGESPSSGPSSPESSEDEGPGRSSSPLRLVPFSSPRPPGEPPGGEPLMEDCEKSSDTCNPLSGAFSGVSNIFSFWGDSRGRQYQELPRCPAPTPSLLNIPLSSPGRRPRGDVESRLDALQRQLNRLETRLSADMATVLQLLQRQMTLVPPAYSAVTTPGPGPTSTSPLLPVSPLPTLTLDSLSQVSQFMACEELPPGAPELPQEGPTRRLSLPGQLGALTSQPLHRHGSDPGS

SMILES: O=C1Nc2c(ccc(Cl)c2Cl)C1=NO [NS309, 6,7-dichloro-1H-indole-2,3-dione 3 oxime]
concentration that inhibits KV11.1 (hERG) (KV11.1 (hERG)): 1000 nM | EC50 (KCa2 channels): ~600 nM | EC50 (KCa3.1): ~20 nM

SMILES: Nc1nc2ccc(OC(F)(F)F)cc2s1 [Riluzole]
EC50 (KCa2/3 channels): 10000 to 20000 nM | concentrations that inhibit/affect NaV channels [1]: 1 to 50 µM

SMILES: Nc1nc2c(ccc3ccccc32)s1 [SKA-31, naphtho[1,2-d]thiazol-2-ylamine]
heart rate (mice; 100 mg/kg): significant bradycardia | duration of blood pressure lowering (mice; 10-30 mg/kg): 60 to 90 min | lowering of blood pressure (mice; 10-30 mg/kg): ~30 mmHg | reduction in blood pressure (dogs): −30 mmHg | half-live [2]: 12 h

solubility [3]: too insoluble to be tested
SMILES: Nc1nc2c(cc(Br)c3ccccc32)s1 [SKA-87, 5-Bromooaphtho[1,2-d]thiazol-2-amine]

Source: patent US11173146B2, “Selective activators of the intermediate conductance CA2+activated K+ channel KCa3.1 and their methods of use” (The Regents of the University of California, priority 2014, dated 2021)
